Where a SMILES comes first, the peptide text is derived from it. Bridges are numbered along the chain shown (N, C = ends). [ ]: non-standard residue; d: D form. Arg(NO2) = N=C(NCCC[C@H](N)C(=O)O)N[N+](=O)[O-]; hArg = N=C(N)NCCCC[C@H](N)C(=O)O
How the values were obtained:
human MCH-R2 = human MCH-R2 (Homo sapiens, UniProt Q969V1); test: Aequorin bioluminescence functional assay, MCH-2R; details: for MCH-2R Activation %: % Activation at 10 μM; for MCH-2R Activation % / EC50: aequorin functional assay; for EC50: MCH-2R EC50 (nM); for selective activity at MCH-2R over MCH-1R: greater binding and/or activation at MCH-2R than at MCH-1R
human MCH-1R [1] = biological target: T1, human MCH-1R (Homo sapiens, UniProt Q99705); test: Aequorin bioluminescence functional assay, MCH-1R; details: for MCH-1R Activation %: % Activation at 10 μM, aequorin functional assay
Experimental: The aequorin bioluminescence assay can be used to measure the activity of G protein-coupled receptors that couple through the Gα protein subunit family consisting of Gq and G11. Such coupling leads to phospholipase C activation, intracellular calcium mobilization and protein kinase C activation.
Following approximately 40 hours of expression the apo-aequorin in the cells was charged for 4 hours with coelenterazine (10 μM) under reducing conditions (300 μM reduced glutathione) in ECB buffer (140 mM NaCl, 20 mM KCl, 20 mM HEPES-NaOH [pH=7.4], 5 mM glucose, 1 mM MgCl2, 1 mM CaCl2, 0.1 mg/ml bovine serum albumin).
The cells were harvested, washed once in ECB medium and resuspended to 500,000 cells/ml. 100 μl of cell suspension (corresponding to 5×10^4 cells) was then injected into the test plate containing MCH or MCH analogs, and the integrated light emission was recorded over 30 seconds, in 0.5 second units. 20 μL of lysis buffer (0.1% final Triton X-100 concentration) was then injected and the integrated light emission recorded over 10 seconds, in 0.5 second units. The “fractional response” values for each well were calculated by taking the ratio of the integrated response to the initial challenge to the total integrated luminescence including the Triton X-100 lysis response.

human MCH-1R [2] = biological target: T1, human MCH-1R; test: Radiolabeled MCH-R binding assay (SPA based), MCH-1R
Experimental: (§1) Cell membranes were prepared on ice. Each T-75 flask was rinsed twice with 10 ml of Enzyme-free Cell Dissociation Buffer (Specialty Media, Lavallette, N.J.), and the cell monolayer was detached in an additional 10 ml of Enzyme-free Cell Dissociation Buffer by incubation at room temperature for 10 minutes. Dissociated cells were centrifuged (500×g for 10 minutes at 4° C.), resuspended in 5 ml homogenization buffer (10 mM Tris-HCl, pH 7.4, 0.01 mM Pefabloc, 10 μM phosphoramidon, 40 μg/ml bacitracin) and then homogenized using a glass homogenizer (10-15 strokes). The homogenate was centrifuged for 10 minutes (1,000×g at 4° C.). The resulting supernatant was then centrifuged at 38,700×g for 15 minutes at 4° C. Pelleted membranes were resuspended (passed through 25 gauge needle 5 times), snap-frozen on liquid nitrogen, and stored at −80° C. until use.
(§2) For the SPA-based assay, WGA-PVT beads (NEN Life Sciences Products) were resuspended in Dulbecco's PBS with calcium and magnesium (500 mg beads in 4 ml PBS). […] The suspension was mixed gently for 20 minutes, 12.3 ml of assay buffer and protease inhibitors were added (final concentration given): 2 μg/ml leupeptin, 10 μM phosphoramidon, 40 μg/ml bacitracin, 5 μg/ml aprotinin, 0.1 mM Pefabloc.
(§3) Coated beads were kept on ice until use. […] Binding reactions were allowed to proceed at room temperature for 3 hours. Quantitation was performed by scintillation counting (TopCount device).

human MCH-2R = human MCH-2R (Homo sapiens, UniProt Q969V1); test: Radiolabeled MCH-R binding assay (SPA based), MCH-2R; details: MCH-2R IC50 (nM)
Experimental: as §1, §2, §3

[3] = Table 1, inhibition of [125I]-human MCH (Phe13, Tyr19) binding

Chain of human MCH-R2 (Q969V1 whole entry): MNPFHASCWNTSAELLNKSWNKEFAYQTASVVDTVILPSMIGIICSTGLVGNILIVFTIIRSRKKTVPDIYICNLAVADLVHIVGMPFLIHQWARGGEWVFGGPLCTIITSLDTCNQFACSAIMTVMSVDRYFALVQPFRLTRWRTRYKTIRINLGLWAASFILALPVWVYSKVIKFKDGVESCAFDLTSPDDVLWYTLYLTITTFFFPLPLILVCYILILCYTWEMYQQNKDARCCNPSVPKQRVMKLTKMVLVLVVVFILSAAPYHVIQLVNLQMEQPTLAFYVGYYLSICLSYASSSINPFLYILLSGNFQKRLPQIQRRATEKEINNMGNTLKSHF
Chain of human MCH-2R (Q969V1 whole entry): as above
T1 sequence (Q99705 whole entry): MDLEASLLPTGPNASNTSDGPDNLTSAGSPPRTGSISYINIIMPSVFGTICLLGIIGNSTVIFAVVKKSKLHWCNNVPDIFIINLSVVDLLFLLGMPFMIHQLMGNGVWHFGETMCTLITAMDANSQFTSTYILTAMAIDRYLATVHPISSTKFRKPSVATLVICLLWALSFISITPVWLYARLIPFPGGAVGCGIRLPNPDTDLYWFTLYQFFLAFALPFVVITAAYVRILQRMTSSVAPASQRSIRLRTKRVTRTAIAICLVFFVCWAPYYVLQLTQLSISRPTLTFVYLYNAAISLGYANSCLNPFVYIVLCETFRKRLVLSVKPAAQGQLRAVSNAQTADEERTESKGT

Compound: CSCC[C@@H]1NC(=O)[C@@H](NC(=O)[C@H](CCCNC(=N)N)NC(=O)[C@H](CC(C)C)NC(=O)[C@H](C)NC(=O)[C@H](CC(=O)O)NC(=O)[C@H](Cc2ccccc2)NC(=O)[C@@H](N)CC(=O)O)CSSC[C@@H](C(=O)N[C@@H](Cc2c[nH]c3ccccc23)C(=O)N[C@@H](CCC(N)=O)C(=O)N[C@H](C(=O)O)C(C)C)NC(=O)[C@@H]2CCCN2C(=O)[C@H](CCCNC(=N)N)NC(=O)[C@H](Cc2ccc(O)cc2)NC(=O)[C@H](C(C)C)NC(=O)[C@H](CCCNC(=N)N)NC(=O)CNC(=O)[C@H](CC(C)C)NC1=O [compound 44] (H-DFDALRCMLGRVYRPCWQV-OH; disulfide 7-16; N-terminus and C-terminus assumed)
- MCH-2R Activation % (human MCH-R2; Table 3): 100%
- MCH-1R Activation % (human MCH-1R [1]; Table 3): 97%
- IC50 (human MCH-1R [2]): 0.5 nM

Compound: CSCC[C@@H]1NC(=O)[C@@H](NC(=O)[C@H](CCCNC(=N)N)NC(C)=O)CSSC[C@@H](C(N)=O)NC(=O)[C@@H]2CCCN2C(=O)[C@H](CCCNC(=N)N)NC(=O)[C@H](Cc2ccc(O)cc2)NC(=O)[C@H](C(C)C)NC(=O)[C@H](CCCCNC(=N)N)NC(=O)[C@@H](C)NC(=O)[C@H](CC(C)C)NC1=O [compound 36] (Ac-RCML[dA][hArg]VYRPC-NH2; disulfide 2-11)
- EC50 (human MCH-R2; Table 1, 293-AEQ17 cells): 19 nM
- MCH-2R Activation % (human MCH-R2; Table 1): 74%
- selective activity at MCH-2R over MCH-1R (human MCH-R2): selectively active
- EC50 (human MCH-1R [1]): > 10000 nM
- MCH-1R Activation % (human MCH-1R [1]; Table 1): 0.1%
- IC50 (human MCH-2R; [3]): 0.9 nM

Compound: CSCC[C@@H]1NC(=O)[C@@H](NC(=O)[C@H](CCCNC(=N)N)NC(=O)[C@H](CC(C)C)NC(=O)[C@H](CCSC)NC(=O)[C@H](CC(=O)O)NC(=O)[C@H](Cc2ccccc2)NC(=O)[C@@H](N)CC(=O)O)CSSC[C@@H](C(=O)N[C@@H](Cc2c[nH]c3ccccc23)C(=O)N[C@@H](C)C(=O)N[C@H](C(=O)O)C(C)C)NC(=O)[C@@H]2CCCN2C(=O)[C@H](CCCNC(=N)N)NC(=O)[C@H](Cc2ccc(O)cc2)NC(=O)[C@H](C(C)C)NC(=O)[C@H](CCCNC(=N)N)NC(=O)CNC(=O)[C@H](CC(C)C)NC1=O [compound 55] (H-DFDMLRCMLGRVYRPCWAV-OH; disulfide 7-16; N-terminus and C-terminus assumed)
- MCH-2R Activation % (human MCH-R2; Table 3): 97%
- MCH-1R Activation % (human MCH-1R [1]; Table 3): 99%
- IC50 (human MCH-2R; Table 3): 9.5 nM

Compound: CSCC[C@@H]1NC(=O)[C@@H](NC(=O)[C@H](CCCNC(=N)N)NC(C)=O)CSSC[C@@H](C(N)=O)NC(=O)[C@@H]2CCCN2C(=O)[C@H](CCCNC(=N)N)NC(=O)[C@H](Cc2ccc(O)cc2)NC(=O)[C@H](C(C)C)NC(=O)[C@H](CCCNC(=N)N[N+](=O)[O-])NC(=O)[C@@H](C)NC(=O)[C@H](CC(C)C)NC1=O [compound 37] (Ac-RCML[dA][Arg(NO2)]VYRPC-NH2; disulfide 2-11)
- MCH-2R Activation % (human MCH-R2; Table 1): 34%
- EC50 (human MCH-1R [1]): > 10000 nM
- MCH-1R Activation % (human MCH-1R [1]; Table 1): 0.1%
- IC50 (human MCH-1R [2]): > 1000 nM

Compound: CSCC[C@@H]1NC(=O)[C@@H](NC(=O)[C@H](CCCNC(=N)N)NC(C)=O)CSSC[C@@H](C(N)=O)NC(=O)[C@@H]2CCCN2C(=O)[C@H](CCCNC(=N)N)NC(=O)[C@H](Cc2ccc(O)cc2)NC(=O)[C@H](C(C)C)NC(=O)[C@H](CCCNC(=N)N)NC(=O)[C@@H](CC(N)=O)NC(=O)[C@H](CC(C)C)NC1=O [compound 18]
- EC50 (human MCH-R2; Table 1, 293-AEQ17 cells): 24 nM
- MCH-2R Activation % (human MCH-R2; Table 1): 106%
- selective activity at MCH-2R over MCH-1R (human MCH-R2): selectively active
- MCH-1R Activation % (human MCH-1R [1]; Table 1): 39%
- IC50 (human MCH-2R; [3]): 2.3 nM

Compound: CSCC[C@@H]1NC(=O)[C@@H](NC(=O)[C@H](CCCNC(=N)N)NC(=O)[C@H](CC(C)C)NC(=O)[C@H](CCSC)NC(=O)[C@H](CC(=O)O)NC(=O)[C@H](Cc2ccccc2)NC(=O)[C@@H](N)CC(=O)O)CSSC[C@@H](C(=O)N[C@@H](Cc2c[nH]c3ccccc23)C(=O)N[C@@H](CCC(N)=O)C(=O)N[C@H](C(=O)O)C(C)C)NC(=O)[C@@H]2CCCN2C(=O)[C@H](C)NC(=O)[C@H](Cc2ccc(O)cc2)NC(=O)[C@H](C(C)C)NC(=O)[C@H](CCCNC(=N)N)NC(=O)CNC(=O)[C@H](CC(C)C)NC1=O [compound 52] (H-DFDMLRCMLGRVYAPCWQV-OH; disulfide 7-16; N-terminus and C-terminus assumed)
- EC50 (human MCH-R2; Table 3): 187 nM
- MCH-2R Activation % (human MCH-R2; Table 3): 81%
- MCH-1R Activation % (human MCH-1R [1]; Table 3): 97%
- IC50 (human MCH-1R [2]): 1.4 nM

Compound: CSCC[C@@H]1NC(=O)[C@@H](NC(=O)[C@H](CCCNC(=N)N)NC(=O)[C@H](CC(C)C)NC(=O)[C@H](CCSC)NC(=O)[C@H](CC(=O)O)NC(=O)[C@H](Cc2ccccc2)NC(=O)[C@@H](N)CC(=O)O)CSSC[C@@H](C(=O)N[C@@H](Cc2c[nH]c3ccccc23)C(=O)N[C@@H](CCC(N)=O)C(=O)N[C@H](C(=O)O)C(C)C)NC(=O)[C@@H]2CCCN2C(=O)[C@H](CCCNC(=N)N)NC(=O)[C@H](Cc2ccc(O)cc2)NC(=O)[C@H](C(C)C)NC(=O)[C@H](CCCNC(=N)N)NC(=O)CNC(=O)[C@H](CC(C)C)NC1=O [compound 1]
- EC50 (human MCH-R2; Table 1, 293-AEQ17 cells): 30.7 nM
- MCH-2R Activation % (human MCH-R2; Table 2): 100%
- MCH-2R Activation % (human MCH-R2; Table 3): 100%
- MCH-1R Activation % (human MCH-1R [1]; Table 2): 100%
- MCH-1R Activation % (human MCH-1R [1]; Table 3): 100%
- IC50 (human MCH-2R; [3]): 0.5 nM
- IC50 (human MCH-2R; Table 2): 0.5 nM
- IC50 (human MCH-2R; Table 3): 0.9 nM

Compound: CSCC[C@@H]1NC(=O)[C@@H](NC(=O)[C@H](CCCNC(=N)N)NC(C)=O)CSSC[C@@H](C(N)=O)NC(=O)[C@@H]2CCCN2C(=O)[C@H](CCCNC(=N)N)NC(=O)[C@H](Cc2ccc(O)cc2)NC(=O)[C@H](C(C)C)NC(=O)[C@H](CCCNC(=N)N)NC(=O)[C@@H](CO)NC(=O)[C@H](CC(C)C)NC1=O [compound 19]
- MCH-2R Activation % (human MCH-R2; Table 1): 113%
- selective activity at MCH-2R over MCH-1R (human MCH-R2): selectively active
- MCH-1R Activation % (human MCH-1R [1]; Table 1): 47%
- IC50 (human MCH-1R [2]): 31 nM

Compound: CSCC[C@@H]1NC(=O)[C@@H](NC(=O)[C@H](CCCNC(=N)N)NC(=O)[C@H](CC(C)C)NC(=O)[C@H](CCSC)NC(=O)[C@H](CC(=O)O)NC(=O)[C@H](Cc2ccccc2)NC(=O)[C@@H](N)CC(=O)O)CSSC[C@@H](C(=O)N[C@@H](Cc2ccc(O)cc2)C(=O)N[C@@H](CCC(N)=O)C(=O)N[C@H](C(=O)O)C(C)C)NC(=O)[C@@H]2CCCN2C(=O)[C@H](CCCNC(=N)N)NC(=O)[C@H](Cc2ccccc2)NC(=O)[C@H](C(C)C)NC(=O)[C@H](CCCNC(=N)N)NC(=O)CNC(=O)[C@H](CC(C)C)NC1=O [compound 57] (H-DFDMLRCMLGRVFRPCYQV-OH; disulfide 7-16; N-terminus and C-terminus assumed)
- EC50 (human MCH-R2; Table 3): 1.5 nM
- MCH-2R Activation % (human MCH-R2; Table 3): 92%
- MCH-1R Activation % (human MCH-1R [1]; Table 3): 97%
- IC50 (human MCH-1R [2]): 0.6 nM

Compound: CSCC[C@@H]1NC(=O)[C@@H](NC(=O)[C@H](CCCNC(=N)N)NC(C)=O)CSSC[C@@H](C(N)=O)NC(=O)[C@@H]2CCCN2C(=O)[C@H](CCCNC(=N)N)NC(=O)[C@H](Cc2ccc(O)cc2)NC(=O)[C@H](C(C)C)NC(=O)[C@H](C)NC(=O)CNC(=O)[C@H](CC(C)C)NC1=O [compound 23] (Ac-RCMLGAVYRPC-NH2; disulfide 2-11)
- EC50 (human MCH-R2; Table 1, 293-AEQ17 cells): > 1000 nM
- MCH-2R Activation % (human MCH-R2; Table 1): 36%
- selective activity at MCH-2R over MCH-1R (human MCH-R2): selectively active
- EC50 (human MCH-1R [1]): > 10000 nM
- IC50 (human MCH-1R [2]): > 1000 nM

Compound: CSCC[C@H](NC(=O)[C@H](CC(=O)O)NC(=O)[C@H](Cc1ccccc1)NC(=O)[C@@H](N)CC(=O)O)C(=O)N[C@@H](CC(C)C)C(=O)N[C@@H](CCCNC(=N)N)C(=O)N[C@H]1CSSC[C@@H](C(=O)N[C@@H](Cc2c[nH]c3ccccc23)C(=O)N[C@@H](CCC(N)=O)C(=O)N[C@H](C(=O)O)C(C)C)NC(=O)[C@@H]2CCCN2C(=O)[C@H](CCCNC(=N)N)NC(=O)[C@H](Cc2ccc(O)cc2)NC(=O)[C@H](C(C)C)NC(=O)[C@H](CCCNC(=N)N)NC(=O)CNC(=O)[C@H](CC(C)C)NC(=O)[C@H](C)NC1=O [compound 47] (H-DFDMLRCALGRVYRPCWQV-OH; disulfide 7-16; N-terminus and C-terminus assumed)
- MCH-2R Activation % (human MCH-R2; Table 3): 94%
- MCH-1R Activation % (human MCH-1R [1]; Table 3): 56%
- IC50 (human MCH-2R; Table 3): 40 nM

Compound: CC(=O)N[C@@H](CCCNC(=N)N)C(=O)N[C@H]1CSSC[C@@H](C(N)=O)NC(=O)[C@@H]2CCCN2C(=O)[C@H](CCCNC(=N)N)NC(=O)[C@H](Cc2ccc(O)cc2)NC(=O)[C@H](C(C)C)NC(=O)[C@H](CCCNC(=N)N)NC(=O)CNC(=O)[C@H](CC(C)C)NC(=O)[C@H](C)NC1=O [compound 4] (Ac-RCALGRVYRPC-NH2; disulfide 2-11)
- EC50 (human MCH-R2; Table 1, 293-AEQ17 cells): 12 nM
- MCH-2R Activation % (human MCH-R2; Table 1): 104%
- selective activity at MCH-2R over MCH-1R (human MCH-R2): selectively active
- MCH-1R Activation % (human MCH-1R [1]; Table 1): 42%
- IC50 (human MCH-1R [2]): 15 nM

Compound: CSCC[C@H](NC(=O)[C@H](C)NC(=O)[C@H](Cc1ccccc1)NC(=O)[C@@H](N)CC(=O)O)C(=O)N[C@@H](CC(C)C)C(=O)N[C@@H](CCCNC(=N)N)C(=O)N[C@H]1CSSC[C@@H](C(=O)N[C@@H](Cc2c[nH]c3ccccc23)C(=O)N[C@@H](CCC(N)=O)C(=O)N[C@H](C(=O)O)C(C)C)NC(=O)[C@@H]2CCCN2C(=O)[C@H](CCCNC(=N)N)NC(=O)[C@H](Cc2ccc(O)cc2)NC(=O)[C@H](C(C)C)NC(=O)[C@H](CCCNC(=N)N)NC(=O)CNC(=O)[C@H](CC(C)C)NC(=O)[C@H](CCSC)NC1=O [compound 43] (H-DFAMLRCMLGRVYRPCWQV-OH; disulfide 7-16; N-terminus and C-terminus assumed)
- MCH-2R Activation % (human MCH-R2; Table 3): 95%
- MCH-1R Activation % (human MCH-1R [1]; Table 3): 97%
- IC50 (human MCH-1R [2]): 0.5 nM

Reference: patent US7314861B2, “Melanin-concentrating hormone analogs” (priority 2001, dated 2008)
